According to US9993002B2, “1,2,3-thiadiazol-5yl-urea derivatives, use thereof for regulating plant senescence and preparations containing these derivatives” (USTAV EXPERIMENTALNI BOTANIKY AV CR, V.V.I., priority 2014, dated 2018):
pIC50: −log10 of the molar value.

Key:
[1] = tested on: detached leaf segments of Triticum aestivum cv. Hereward; experiment: Senescence bioassay on wheat leaf segments in dark conditions; settings: dark, 96 h, 25° C., chlorophyll absorbance 665 nm, read-out: Senescence bioassay (IC50)
Procedure: (§1) Seeds of winter wheat, Triticum aestivum cv. Hereward, were washed under running water for 24 hours and then sown on perlite soaked with Hogland's solution. They were placed in the growth chamber at 25° C. with a 16/8 h light period at 50 μmol·m^−2·s^−1. After 7 days, the first leaf was fully developed and the second leaf had started to grow. A tip section of the first leaf, approximately 4 cm long, was removed from 4 seedlings and trimmed slightly to a combined weight of 100 mg. The basal ends of the four leaf tips were placed into the 96-wells plate containing 150 μL of the tested derivative solution each. The entire plate was inserted into a plastic box lined with paper tissues soaked in distilled water to prevent leaf sections from drying out. After 96 h incubation in the dark at 25° C., the leaves were removed and chlorophyll extracted by heating at 80° C. for 10 min in 5 mL of 80% ethanol (v/v). The sample volume was then restored to 5 mL by the addition of 80% ethanol (v/v). The absorbance of the extract was recorded at 665 nm. In addition, chlorophyll extracts from fresh leaves and leaf tips incubated in deionised water were measured. The results are means of five replicates and the entire test was repeated at least twice. […] The compounds to be tested were dissolved in dimethylsulfoxide (DMSO) and the solution brought up to 10^−3 M with distilled water. […] The IC50 values were determined for standard (BAP) and novel tested compounds.

[2] = tested on: detached leaf segments of Triticum aestivum cv. Hereward; experiment: Senescence bioassay on wheat leaf segments in dark/light conditions; settings: foliar, 168 h, read-out: Senescence bioassay (IC50)
Procedure: as §1
The ability of the novel compounds to retard chlorophyll degradation in detached wheat leaves was tested also in the light conditions. The experiment was performed as described in Example 7 with modifications as follows—the incubation of the leaves with the compounds was done in the dark/light conditions 8/16 (light—100 μmol·m^−2·s^−1) at 22° C. for 7 days. […] The newly prepared substituted 1,2,3-thiadiazol-5-yl urea derivatives of the invention are much stronger anti-senescent compounds in comparison to the BAP in retarding senescence under optimal (dark/light) conditions.

[3] = tested on: detached leaves of Triticum aestivum cv. Hereward; experiment: Membrane lipid peroxidation (MDA, TBA method) in detached wheat leaves in the dark; settings: for MDA: four days in the dark
Procedure: A typical symptom associated with senescence as a direct consequence of increased reactive oxygen species is membrane lipid peroxidation which produces malondialdehyde (MDA). Therefore the levels of MDA, a decomposition product of lipid peroxidation, were measured in detached wheat leaves that were exposed to the prepared novel derivatives or BAP for four days in the dark as described in Example 7. MDA levels were measured using a thiobarbituric acid (TBA) method. In detail, 100 mg of fresh plant material was homogenized by high speed shaking in a ball mill (MM301, Retsch, Germany) with 1 mL of 70% methanol. The crude extract was centrifuged at 10,000×g for 5 min, and 100 μL aliquot of supernatant was vortexed with 100 μL of 0.5% (w/v) TBA containing 0.1% (w/v) trichloroacetic acid, and the resulting solution was then incubated for 30 min at 95° C. The samples were quickly cooled on ice and centrifuged for 5 min at 1000 g. The absorbance of supernatant was measured at 532 nm with background subtraction at 600 nm and the amount of MDA-TBA complex was calculated from the coefficient of absorbance 155 mM^−1 cm^−1.

[4] = tested on: Arabidopsis thaliana (wild-type Col-0); experiment: Root growth and lateral root formation of Arabidopsis; type: in vivo; settings: 10 nM; for Lateral root number / Primary root lenght: two weeks after transfer
Procedure: To investigate in vivo effect of the new derivatives on the root growth and development, seeds of Arabidopsis thaliana (wild-type Col-0) were surface sterilized and sown on vertical plates on half-strength Murashige-Skoog medium (supplied with 0.1% sucrose and 6 g/L phytagel) containing 10 nM BAP or 10 nM 1,2,3-thiadiazol-5-yl-urea derivative, or 0.01% DMSO (solvent control). After vernalization (4 days in the dark, 4° C.) plates were transferred into the growth chamber (22° C., 16/8 light/dark). Two weeks after transfer, seedlings were photographed and root elongation and lateral root formation was scored using Scion image software (Scion Corp., Frederick, Md., USA). At least 40 plants were measured for each treatment.

[5] = Toxicity towards human skin fibroblasts (Calcein AM assay); type: cell-based
Procedure: Cytotoxicity of the compounds to human skin fibroblasts (BJ cell line) was determined in a standard Calceinovém AM test. Cells were maintained in plastic tissue culture flasks and grown in Dulbecco's modified Eagle's medium for cell culture (DMEM) at 37° C. in 5% CO2 and 100% humidity. Cells were placed into 96-well microtiter plates (Nunc, Denmark) and after 12 hours pre-incubation, the tested compound was added to a final concentration ranging from […]. Cells were incubated for 72 hours. At the end of incubation period Calcein AM was added in PBS to a final concentration of […]. After 1 hour of incubation fluorescence was measured at 485/538 nm (ex/em wavelength) using Fluoroskan Ascent (Labsystems, Finland). IC50 values (the concentration causing reduction of calcein AM conversion to 50%) were calculated from the curves obtained. All experiments were repeated four times with a maximum deviation of 15%. Due to the limited solubility of substances in water, all the tested compounds were dissolved in DMSO and diluted with water to a final concentration.

[6] = tested on: wheat leaves; experiment: Ethylene production (defoliating activity) assay; set-up: species or system Triticum aestivum; settings: 10 μM; for Ethylene produced: 96 h in the dark at 25° C., control 270 (±15)
Procedure: We investigated the effect of the compounds of the invention on ethylene production in wheat leaves. The leaves were obtained as described in Example 8, placed in 5 mL glass vials and immersed at 10 μM solutions of tested compounds of the invention or TDZ. Distilled water was used as a control treatment. After 96 h incubation in the dark at 25° C., 1 mL of air was taken from the vials and content of ethylene in it was determined using gas chromatography with the flame ionization detector (GC-FID) method described by Fišerová et al. (Fišerová H, Kula E, Klemš M, Reinöhl V (2001) Phytohormones as indicators of the degree of damage in birch (Betula pendula). Biológia 56: 405-409).

[7] = dark/light 8/16, 22° C., 7 days

pIC50 ([1]; Triticum aestivum, foliar)	pIC50 [2, 7]	Compound	MDA [3]	Lateral root number [4]	Primary root lenght [4]	CC50 at 72 h [5] [µM]	Ethylene produced [6]	also measured
		1-(3,4-dihydro-2H-pyran-2-yl-methyl)-3-[1,2,3]thiadiazol-5-yl-urea [Compound 82]						pIC50 [1]: 4.60
		1-(thiophen-2-yl-methyl)-3-[1,2,3]thiadiazol-5-yl-urea [Compound 76]						pIC50 [1]: 4.49
		1-(thiophen-2-yl-methyl)-3-[1,2,3]thiadiazol-5-yl-urea [Compound 78]						pIC50 [1]: 4.35
3.81	3.91	c1ccc(CNc2ncnc3nc[nH]c23)cc1 [6-benzylaminopurine (BAP), 6-benzylaminopurine, reference compound]	19.1 (±1.7) nmol/g FW	3.6 (±2)	15 (±5) mm			effect on peroxidation of membrane lipids (in words) ([3]; compared to untreated control): does not decrease the peroxidation of membrane lipids significantly; root development (in words) [4]: severely and significantly retarded
4.59		O=C(NCCO)Nc1cnns1 [Compound 1, 1-(2-hydroxy-ethyl)-3-[1,2,3]thiadiazol-5-yl-urea]						
5.04	6.51	O=C(NCCCO)Nc1cnns1 [Compound 2, 1-(3-hydroxy-propyl)-3-[1,2,3]thiadiazol-5-yl-urea]	16.4 (±1.6) nmol/g FW	12 (±6)	39 (±9) mm	> 100	293 (±21) nL/g FW	
4.94	6.40	COCCCNC(=O)Nc1cnns1 [Compound 7, 1-(3-methoxy-propyl)-3-[1,2,3]thiadiazol-5-yl-urea]	14.4 (±0.8) nmol/g FW	14 (±10)	40 (±10) mm	> 100	312 (±18) nL/g FW	
4.59		COCCCCNC(=O)Nc1cnns1 [Compound 8, 1-(4-methoxy-butyl)-3-[1,2,3]thiadiazol-5-yl-urea]						
4.51		COCCCCCNC(=O)Nc1cnns1 [Compound 9, 1-(5-methoxy-pentyl)-3-[1,2,3]thiadiazol-5-yl-urea]						
4.35		COCCCCCCNC(=O)Nc1cnns1 [Compound 10, 1-(6-methoxy-hexyl)-3-[1,2,3]thiadiazol-5-yl-urea]						
5.54	6.80	COC(CNC(=O)Nc1cnns1)OC [Compound 16, 1-(2,2-dimethoxy-ethyl)-3-[1,2,3]thiadiazol-5-yl-urea]	11.6 (±1.2) nmol/g FW	19 (±9)	45 (±9) mm	> 100	267 (±23) nL/g FW	
4.90	6.21	C/C(=C\CNC(=O)Nc1cnns1)CO [Compound 20, 1-((E)-4-hydroxy-3-methyl-but-2-enyl)-3-[1,2,3]thiadiazol-5-yl-urea]	15.8 (±0.7) nmol/g FW	11 (±6)	32 (±9) mm	> 100	254 (±22) nL/g FW	effect on ethylene evolution compared to control (in words) ([6]; 96 h): inhibition of ethylene evolution
4.01		CC(C)=CCNC(=O)Nc1cnns1 [Compound 21, 1-(3-methyl-but-2-enyl)-3-[1,2,3]thiadiazol-5-yl-urea]						
5.46	7.00	CC(O)CNC(=O)Nc1cnns1 (stereo not shown) [Compound 25, 1-(2-Hydroxy-propyl)-3-[1,2,3]thiadiazol-5-yl-urea]	12.6 (±0.83) nmol/g FW	12 (±8)	35 (±0.8) mm	> 100	281 (±31) nL/g FW	
5.07	6.37	COCC(C)NC(=O)Nc1cnns1 (stereo not shown) [Compound 28, 1-(2-methoxy-1-methyl-ethyl)-3-[1,2,3]thiadiazol-5-yl-urea]	13.9 (±0.9) nmol/g FW	16 (±7)	41 (±13) mm	> 100	246 (±12) nL/g FW	effect on ethylene evolution compared to control (in words) ([6]; 96 h): inhibition of ethylene evolution
		O=C(NCCS)Nc1cnns1 [Compound 34, 1-(2-thio-ethyl)-3-[1,2,3]thiadiazol-5-yl-urea]						pIC50 [1]: 4.74
		O=C(NCCCS)Nc1cnns1 [Compound 35, 1-(3-thio-propyl)-3-[1,2,3]thiadiazol-5-yl-urea]						pIC50 [1]: 4.92
5.51		CSCCNC(=O)Nc1cnns1 [Compound 39, 1-(2-methylthio-ethyl)-3-[1,2,3]thiadiazol-5-yl-urea]						
4.98		CSCCCCCNC(=O)Nc1cnns1 [Compound 42, 1-(5-methylthio-pentyl)-3-[1,2,3]thiadiazol-5-yl-urea]						
5.15	6.60	C=CCNC(=O)Nc1cnns1 [Compound 50, 1-Allyl-3-[1,2,3]thiadiazol-5-yl-urea]	17.4 (±1.3) nmol/g FW	14 (±10)	42 (±12) mm	> 100	279 (±18) nL/g FW	
4.66		C#CCNC(=O)Nc1cnns1 [Compound 55, 1-prop-2-ynyl-3-[1,2,3]thiadiazol-5-yl-urea]	14.1 (±1.1) nmol/g FW	15 (±8)	40 (±10) mm	> 100		
		O=C(NCCCCCCBr)Nc1cnns1 [Compound 74, 1-(6-bromo-hexyl)-3-[1,2,3]thiadiazol-5-yl-urea]						level of membrane lipid peroxidation during dark senescence reduced to ([3]; compared to untreated control): 50.2%
		O=C(Nc1ccccc1)Nc1cnns1 [TDZ, thidiazuron, reference compound]		2.1 (±2)	10 (±4) mm		628 (±45) nL/g FW	pIC50 [2]: 5.96; elevation of ethylene production compared to untreated control ([6]; 96 h): 133%; times higher production of ethylene than the novel tested compounds ([6]; 96 h): at least 5 times
